US20240041036A1, “BIO PESTICIDAL COMPOSITION CONTAINS NOVEL NONANOATE ESTERS OF SUGARS AND SUGAR ALCOHOLS TO CONTROL LEPIDOPTERA, HEMIPTERA AND THYSANOPTERA INSECTS” (FERTIS INDIA PVT. LTD., priority 2020, published 2024)

Assays:
Assay in all cases: Field experiment on cotton sucking insects, population count
Assay type in all cases: in vivo
[1] = tested on: jassids (Amrascabi guttula); conditions: for Jassids population count after spray: 0.5 g/L
Description: (§1) A field experiment was conducted with EN2 formulation on cotton sucking insects viz. thrips (Scirtothrips dorsails), aphids (Aphis gossypii), jassids (Amrascabi guttula) and whitefly (Bemisia tabaci), as shown in FIG. 25. Two benchmark insecticides were used as control viz. Thiamethoxam (a broad spectrum insecticide) and Acetamiprid (effective to cotton sucking pest). […] Initially the population of the pests (pre count) was assessed before spraying. […] The number of major sucking pests (2 leaves from top, one from middle and 2 leaves from bottom) in 5 tagged plants/treatment was recorded at 24 h before the spray and after 24 h, 3rd, 6th and 9th day after spray. The data was pooled and average population calculated.

[2] = tested on: thrips (Scirtothrips dorsails); conditions: for Thrips population count after spray: 0.5 g/L; for Reduction of thrips population: after 24 h, dose not stated
Description: as §1, with “pest). Three doses of EN 2 formulation (for 1 kg formulation EN 800 g+Arginine 80 g+Silwet20 g+Tergitol 20 g+Water 150 g) was used for this study viz.” for “pest).”

[3] = tested on: whitefly (Bemisia tabaci); conditions: 0.5 g/L
Description: as §1, with “pest). Three doses of EN 2 formulation (for 1 kg formulation EN 800 g+Arginine 80 g+Silwet20 g+Tergitol 20 g+Water 150 g) was used for this study viz.” for “pest).”

SMILES	Jassids population count after spray ([1]; 3rd day after spray)	Jassids population count after spray ([1]; 6th day after spray)	Jassids population count after spray ([1]; 9th day after spray)	Jassids population count after spray ([1]; 24 hrs after spray)	Thrips population count after spray ([2]; 3rd day after spray)	Thrips population count after spray ([2]; 6th day after spray)	Thrips population count after spray ([2]; 9th day after spray)	Thrips population count after spray ([2]; 24 h after spray)	Reduction of thrips population [2]	Whitefly population count after spray ([3]; 3rd day after spray)	Whitefly population count after spray ([3]; 6th day after spray)	Whitefly population count after spray ([3]; 9th day after spray)	Whitefly population count after spray ([3]; 24 h after spray)	Reduction of Jassids population ([1]; 3rd day after the spray)	Reduction of Jassid population ([1]; 9th day)
C/C(=N\C#N)N(C)Cc1ccc(Cl)nc1 [Acetamiprid]	3.56	2.66	3.36	14	4.06	5.66	3.6	22.7	13.7%	1.66	2.4	2.13	8.66	–	–
CN1COCN(Cc2cnc(Cl)s2)/C1=N\[N+](=O)[O-] [Thiamethoxam]	3.26	2	2.73	13.66	3.46	5.33	3.76	23.7	15.9%	1.86	2.46	1.7	7	11.8%	40.6%
